Assay results from ChEMBL document CHEMBL3792325, “Two novel phenanthraquinones with anti-cancer activity isolated from Bletilla striata” (Bioorg Med Chem Lett, 2016).
In brackets after ≈: the same amount, converted by molar mass.

Experiments:
A549 [1] = experiment: Induction of ROS generation in human A549 cells assessed as fold change at 20 ug/ml after 24 hrs by FACS-flow cytometry method relative to control; type: functional
A549 [2] = experiment: Effect on cell cycle distribution in human A549 cells assessed as accumulation at S phase at 20 ug/ml after 24 hrs by propidium iodide staining based flow cytometry method (reference value: 38.76%); type: functional
A549 [3] = experiment: Effect on cell cycle distribution in human A549 cells assessed as accumulation at […] phase at 20 ug/ml after 24 hrs by propidium iodide staining based flow cytometry method (reference value: 1.96%); type: functional
A549 [4] = experiment: Induction of ROS generation in human A549 cells at 20 ug/ml after 24 hrs by FACS-flow cytometry method (reference value: 20.51); type: functional
A549 [5] = experiment: Effect on cell cycle distribution in human A549 cells assessed as accumulation at G2 phase at 20 ug/ml after 24 hrs by propidium iodide staining based flow cytometry method (reference value: 8%); type: functional
HT-29 = experiment: Antiproliferative activity against human HT-29 cells assessed as growth inhibition after 48 hrs by MTT assay; type: functional, cell-based; details: HT-29, 48 h
HUVEC = experiment: Antiproliferative activity against human HUVEC cells assessed as growth inhibition after 48 hrs by MTT assay; type: cell-based
A549 [6] = experiment: Antiproliferative activity against human A549 cells assessed as growth inhibition after 48 hrs by MTT assay; type: functional, cell-based; details: A549, 48 h
MCF7 = experiment: Antiproliferative activity against human MCF7 cells assessed as growth inhibition after 48 hrs by MTT assay; type: functional, cell-based; details: MCF7, 48 h
A549 [7] = experiment: Effect on cell cycle distribution in human A549 cells assessed as accumulation at G1 phase at 20 ug/ml after 24 hrs by propidium iodide staining based flow cytometry method (reference value: 53.24%); type: functional

Row | Compound | fold change (FC) (A549 [1]) | Activity (A549 [2]) [%] | Activity (A549 [3]) [%] | Flu intensity (A549 [4]) | Activity (A549 [5]) [%] | IC50 (HT-29) [µg/mL] | IC50 (HUVEC) [µg/mL] | IC50 (A549 [6]) [µg/mL] | IC50 (MCF7) [µg/mL] | Activity (A549 [7]) [%]
1 | COC1=Cc2ccc3cc(O)ccc3c2C(=O)C1=O | 6 | 30.31 | 2 | 136 | 6.47 | 25 (≈ 98.4 µM) | 48.3 (≈ 190 µM) | 19.7 (≈ 77.6 µM) | 18.5 (≈ 72.7 µM) | 63.22
2 | COC1=C(c2c(O)ccc3c2ccc2cc(OC)c(O)c(OC)c23)c2ccc3cc(O)ccc3c2C(=O)C1=O | 10 | 22.6 | 1.95 | 256.68 | 8 | 22.7 (≈ 43.4 µM) | 33.5 (≈ 64.1 µM) | 22.6 (≈ 43.3 µM) | 12.6 (≈ 24.2 µM) | 69.4
3 | COc1cc2ccc3c(OC)c(O)ccc3c2c(OC)c1O | – | – | – | – | – | > 100 | > 100 | > 100 | > 100 | –
4 | COc1cc(O)c2c(c1)C(=O)c1cc(C)cc(O)c1C2=O [PHYSCION] | – | – | – | – | – | > 100 | > 100 | > 100 | > 100 | –
5 | Cc1ccc2c(c1)C(=O)c1ccccc1C2=O [TECTOQUINONE] | – | – | – | – | – | > 100 | > 100 | > 100 | > 100 | –
6 | COc1cc(C(=O)O)ccc1O [VANILLIC ACID] | – | – | – | – | – | > 100 | > 100 | > 100 | > 100 | –
